Measurements taken from US20250034216A1, “STEREOSELECTIVE COVALENT LIGANDS FOR ONCOGENIC AND IMMUNOLOGICAL PROTEINS” (The Scripps Research Institute, priority 2021, published 2025).

What was measured:
[1] = molecular target: PSME1 and PSME2 (PA28 complex) (Homo sapiens, UniProt Q06323); test: SEC-MS elution profile; assay type: cell-based; design: endogenous in cells; host or cells: 22Rv1; details: 22Rv1 cells, 20 μM, 3 h
Protocol: Sample preparation: Cells (adherent: 15 cm dishes, suspension: 2 million cells/mL) were treated with electrophilic probes in situ for indicated times and concentrations (elaborated fragments: 20 μM, 3 h), washed with ice-cold PBS, and flash frozen in liquid nitrogen. Cell pellets were lysed by sonication (8 pulses, 40% power) in 600 μL ice-cold PBS supplemented with cOmplete protease inhibitors (1 tablet/10 mL of PBS), ultracentrifuged for 20 min at 100,000 g, then normalized to a standardized concentration (typically 1.5 to 2.5 mg/mL). Clarified lysate was injected into a Superdex 200 Increase 10/300 GL column attached to an AKTA pure FPLC system. Proteins were fractionated using an isocratic gradient (PBS) running at 0.5 mL/min into 5 fractions 2 mL wide, beginning at 8 mL and ending at 18 mL. Eluate was collected into 15 mL tubes containing 12 mL of acetone at 4C. After completion of one set of 5 fractions, the above protocol was repeated a second time for the remaining 5 fractions. Proteins were precipitated overnight at −20 C, then spun at 4500 g for 20 minutes, yielding a white protein pellet. Acetone/PBS mixture was decanted off the pellets, which were dried at room temperature and then resuspended in 125 μL of 8 M urea, 10 mM DTT in 100 mM EPPS for 15 minutes at 65 degrees, followed by probe sonication to complete resuspension. 6.25 μL of 500 mM iodoacetamide was added to samples for alkylation (30 minutes, 37 C), followed by dilution with 370 μL of 100 mM EPPS, and addition of 2 μg trypsin per fraction, and digestion overnight at 37 C. 70 μL of tryptic digest was aliquoted into a clean microcentrifuge tube, followed by 30 μL of dry acetonitrile and 4.5 μL (5 mg/256 μL) of TMT tag in dry acetonitrile. Samples were labeled at room temperature for 75 minutes, then quenched with 6 μL of 5% hydroxylamine for 15 minutes and acidified with 5 μL of formic acid. The set of 10 samples were then combined into a single tube and evaporated by speed vac. Samples were then desalted and fractionated before analysis by mass spectrometry.
Data processing: Fractional distributions for each peptide-spectra match with a total TMT reporter ion intensity were calculated by dividing the reporter ion intensity for each TMT channel by the summed intensity across the 5 TMT channels corresponding to a single treatment condition (Equation 1). Protein-level SEC elution profiles were then generated by averaging together all unique peptides with a summed reporter ion intensity >5,000. Two unique peptide sequences were required per-protein. Bar graph elution profiles are represented as the mean±standard error of the mean across all replicates. Euclidean distances (SE shift scores, Equation 2) were calculated using the average elution profile for each protein across replicates, combined by treatment condition and cell line. Figures reporting mean elution times used Equation 3 for calculation.
Filtering of SEC-MS data: Replicates were combined based on cell line and treatment condition (probe, concentration, duration) by averaging SEC elution profiles for each protein across all experiments. A coefficient of variation (CV) filter was applied by taking the average the per-fraction CV across all 5 fractions. Proteins with a CV≥0.7 were removed from analysis.

DDX39A_C86 = test: IA-DTB cysteine engagement; assay type: binding, human; details: 22Rv1 cells, 20 μM probe, 1 h, relative to DMSO
Protocol: Sample preparation: Cells (adherent: 15 cm dishes, suspension: 2 million cells/mL) were treated with electrophilic probes in situ for indicated times and concentrations, washed with ice-cold PBS, and flash frozen in liquid nitrogen. Cell pellets were lysed by sonication (8 pulses, 40% power) in 500 μL ice-cold PBS supplemented with cOmplete protease inhibitors (1 tablet/10 mL of PBS). Whole cell lysates protein content was measured using a standard DC protein assay (Bio-Rad) and 500 μL (2 mg/mL protein content) were treated with 5 μL of 10 mM 1A-DTB (in DMSO) for 1 h at ambient temperature with occasional vortexing. Samples were methanol-chloroform precipitated with the addition of 500 μL ice-cold MeOH and 200 μL CHCl3, vortexed, and centrifuged (10 min, 10,000 g). Without disrupting the protein disk, both top and bottom layers were aspirated and the protein disk was washed with 1 mL ice-cold MeOH and centrifuged (10 min, 10,000 g). The pellets were allowed to air dry, and then re-suspended in 90 μL buffer (9 M urea, 10 mM DTT, 50 mM TEAB pH 8.5). Samples were reduced by heating at 65 C for 20 minutes and water bath sonicated as needed to resuspend the protein pellets, followed by alkylation via addition of 10 μL (500 mM) iodoacetamide and incubated at 37 C for 30 min with shaking. Samples were briefly centrifuged, and probe sonicated once more to ensure complete resuspension, and then diluted with 300 μL buffer (50 mM TEAB pH 8.5) to reach final concentration of 2 M urea. Trypsin (4 μL of 0.25 μg/μL in trypsin resuspension buffer with 25 mM CaCl2)) was added to each sample and digested at 37 C for 2 h to overnight. Digested samples were then diluted with 300 μL wash buffer (50 mM TEAB pH 8.5, 150 mM NaCl, 0.2% NP-40) containing streptavidin-agarose beads (50 μL of 50% slurry in wash buffer) and were rotated at room temperature for 2 hours. Enriched samples were pelleted by centrifugation (2000 g, 2 min) and transferred to BioSpin columns and washed (3×1 mL wash buffer, 3×1 mL PBS, 3×1 mL water). Enriched peptides were eluted by 300 μL 50% acetonitrile with 0.1% formic acid and eluate was evaporated to dryness via speedvac. IA-DTB labeled and enriched peptides were resuspended in 100 μL EPPS buffer (200 mM, pH 8.0) with 30% acetonitrile, vortexed, and water bath sonicated. Samples were TMT labeled with 3 μL of corresponding TMT tag (5 mg tag resuspended in 256 μL acetonitrile), vortexed, and incubated at room temperature for 1 hour. […]
Data processing: Cysteine engagement ratios (probe vs DMSO) were calculated for each peptide-spectra match by dividing each TMT reporter ion intensity by the average intensity for the channels corresponding to DMSO treatment. […]

Sequence of PSME1 and PSME2 (PA28 complex) (Q06323 whole entry, the tested form may be a part, one chain of several): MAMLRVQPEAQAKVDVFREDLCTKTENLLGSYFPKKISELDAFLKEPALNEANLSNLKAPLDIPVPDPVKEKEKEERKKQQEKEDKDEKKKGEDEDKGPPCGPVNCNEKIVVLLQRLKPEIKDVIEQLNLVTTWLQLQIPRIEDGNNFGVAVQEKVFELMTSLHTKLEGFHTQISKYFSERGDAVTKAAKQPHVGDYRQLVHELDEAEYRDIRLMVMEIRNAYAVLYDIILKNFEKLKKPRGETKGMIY

SMILES: CC#CC(=O)N1C[C@H](c2ccc(Br)cc2)[C@@H]1C(=O)Nc1cccc2cccnc12 [MY-45B, (2R,3S)-3-(4-bromophenyl)-1-(but-2-ynoyl)-N-(quinolin-8-yl)azetidine-2-carboxamide]
- SEC migration shift of PSME1 and PSME2 [1]: caused the expected SEC migration shifts

SMILES: C=CC(=O)N1C[C@H](c2ccc(Br)cc2)[C@H]1C(=O)Nc1cccc2cccnc12 [MY-3A, (2S,3S)-1-acryloyl-3-(4-bromophenyl)-N-(quinolin-8-yl)azetidine-2-carboxamide]
- % engagement DDX39A_C86 (DDX39A_C86): 23.5%
- SEC migration shift of PSME1 and PSME2 [1]: None of the other azetidine acrylamide stereoisomers

SMILES: C=CC(=O)N1C[C@H](c2ccc(Br)cc2)[C@@H]1C(=O)Nc1cccc2cccnc12 [MY-1B, (2R,3S)-1-acryloyl-3-(4-bromophenyl)-N-(quinolin-8-yl)azetidine-2-carboxamide]
- % engagement DDX39A_C86 (DDX39A_C86): 37%
- SEC migration shift of PSME1 and PSME2 [1]: decreased size shift

SMILES: C=CC(=O)N1C[C@H](c2ccc(Br)cc2)[C@H]1C(=O)Nc1cccc2cccnc12 [MY-3B, (2S,3S)-1-acryloyl-3-(4-bromophenyl)-N-(quinolin-8-yl)azetidine-2-carboxamide]
- % engagement DDX39A_C86 (DDX39A_C86): 67.5%
- SEC migration shift of PSME1 and PSME2 [1]: None of the other azetidine acrylamide stereoisomers

SMILES: C=CC(=O)N1C[C@@H](c2ccc(Br)cc2)[C@H]1C(=O)Nc1cccc2cccnc12 [MY-1A, (2S,3R)-1-acryloyl-3-(4-bromophenyl)-N-(quinolin-8-yl)azetidine-2-carboxamide]
- % engagement DDX39A_C86 (DDX39A_C86): 44.5%
- SEC migration shift of PSME1 and PSME2 [1]: None of the other azetidine acrylamide stereoisomers
